Measured values reported in PMC4160109 (Clinical cancer research : an official journal of the …, 2014).

Columns and labels:
advanced solid tumors = details: cited from earlier work
patients = details: cited from earlier work
[1] = Plasma PK of oral rigosertib in phase I patients; type: in vivo, human; details: for CI7F: plasma, mean ± SD
[2] = Urine PK of oral rigosertib in phase I patients; type: in vivo, human
[3] = tested on: advanced solid malignancies; assay: Phase I antitumor activity; type: in vivo, human; details: for median time on study: all patients
dogs = assay: Preclinical severely toxic dose in 10% of animals, dogs; type: in vivo, dog
rats = assay: Preclinical severely toxic dose in 10% of animals, rats; type: in vivo, rat; details: twice daily
[4] = tested on: patients with advanced solid malignancies; details: in vivo

SMILES: CC[C@@H]1C(=O)N(C)c2cnc(Nc3ccc(C(=O)NC4CCN(C)CC4)cc3OC)nc2N1C1CCCC1 [BI-2536]
- phase I CBR (advanced solid tumors): 32%
- phase I PR (advanced solid tumors): 0%
- phase I stable disease (advanced solid tumors): 32%

SMILES: Nc1cc(C(F)(F)F)c(-c2cc(N3CCOCC3)nc(N3CCOCC3)n2)cn1 [BKM120]
- phase I RR (advanced solid tumors): 2.8%

SMILES: C=CCN(/C=C1/C(=O)O[C@H](COC)[C@@]2(C)C1=C(O)C(=O)C1=C2[C@H](OC(C)=O)C[C@]2(C)C(=O)CC[C@@H]12)CC=C [PX-866]
- phase I RR (advanced solid tumors): 0%
- hyperglycemia (patients): do not cause hyperglycemia

SMILES: COc1ccc(Cl)c(Nc2nc3ccccc3nc2NS(=O)(=O)c2cccc(NC(=O)C(C)(C)N)c2)c1 [XL147]
- hyperglycemia (patients): do not cause hyperglycemia

SMILES: COc1cc(OC)c(/C=C/S(=O)(=O)Cc2ccc(OC)c(NCC(=O)O)c2)c(OC)c1 [rigosertib, sodium (E)-2-{2-methoxy-5-[(2′,4′ ,6′-trimethoxys-tyrylsulfonyl)methyl]phenylamino}acetate]
- plasma pharmacokinetics, dose dependence ([1]; oral 70-700 mg twice daily): linear and dose proportional
- CI7F ([1]; 70 mg twice daily oral, Day 1 cycle 1, n = 3): 71.54 ±42.87 I7h
- CI7F ([1]; 140 mg twice daily oral, Day 1 cycle 1, n = 4): 171.29 ± 155.74 I7h
- CI7F ([1]; 140 mg twice daily oral, Day 21 cycle 1, n = 4): 55.64 ± 36.62 I7h
- CI7F ([1]; 280 mg twice daily oral, Day 1 cycle 1, n = 5): 122.84 ± 123.67 I7h
- CI7F ([1]; 280 mg twice daily oral, Day 21 cycle 1, n = 3): 127.45 ±66.13 I7h
- CI7F ([1]; 560 mg twice daily oral, Day 1 cycle 1, n = 32): 93.28 ± 58.24 I7h
- CI7F ([1]; 560 mg twice daily oral, Day 21 cycle 1, n = 24): 116.33 ±56.32 I7h
- CI7F ([1]; 700 mg twice daily oral, Day 1 cycle 1, n = 7): 64.62 ± 34.70 I7h
- CI7F ([1]; 700 mg twice daily oral, Day 21 cycle 1, n = 2): 149.9 ±51.79 I7h
- 24-hour urine excretion ([2]; nonsymptomatic patients, mean (SD 2.8)): 18.7 mg
- 24-hour urine excretion ([2]; patients with urinary symptoms, mean (SD 7.9)): 16.6 mg
- overall response rate (RR) ([3]; 2/46 evaluable patients, all dose levels): 4.3%
- duration of stable disease ([3]; 8 patients with stable disease for 12 or more weeks, range): 12–36 weeks
- clinical benefit rate (CBR = CR + PR + stable disease) ([3]; 10/46 evaluable patients, stable disease ≥ 12 weeks): 21.7%
- patients with stable disease for ≥ 12 weeks ([3]; all dose levels): 8
- median time on study [3]: 2 cycles
- median time on study ([3]; range, 1–101+): 6 weeks
- best response ([3]; one patient, platinum-refractory HPV-positive HNSCC, 560 mg twice daily): partial response
- time on study ([3]; patient with CR, HPV-negative HNSCC, 280 mg twice daily): ≥ 101 weeks
- time on study ([3]; patient with PR, HPV-positive HNSCC, 560 mg twice daily): 50 weeks
- tumor size decrease from its maximum ([3]; patient with PR, HPV-positive HNSCC, 560 mg twice daily, cycle 5): 40%
- human equivalent of severely toxic dose in 10% of dogs and rats (dogs; 60 kg human): 12.2 mg/kg
- human equivalent of severely toxic dose in 10% of dogs and rats (dogs; 60 kg human with a safety factor of 10): 73 mg
- severely toxic dose in 10% of animals (dogs; dogs, twice daily): 75 mg/kg
- severely toxic dose in 10% of animals (rats): 75 mg/kg
- Fatigue, treatment-related AE (patients) ([4]; human): 1
- Hematuria, treatment-related AE (patients) ([4]; human): 2
- Pelvic pain, treatment-related AE (patients) ([4]; human): 1
- median time to onset of urinary symptoms ([4]; human): 4 weeks
- patients experiencing serious AEs ([4]; human): 13
- patients with doses held for toxicity ([4]; human): 14
- patients with doses reduced for toxicity ([4]; human): 13
- patients with grade 2 or 3 urinary symptoms ([4]; human): 15
- patients with serious AE considered possibly drug-related ([4]; human): 1
- time to resolution of urinary symptoms after drug discontinuation ([4]; human): ≤ 14 days
- Patients with a DLT ([4]; human, 21 days): 2
- patients with a DLT ([4]; human, 21 days): 1
- recommended phase II dose (RP2D) ([4]; human, po, 21 days): 560 mg
- patients with grade 3 nonhematologic toxicity [4]: Seven
- tolerability of dose level [4]: considered intolerable
- Dose-limiting toxicities ([4]; po): hematuria and dysuria
